# Assay results published in patent US20260356957A1, “METHODS FOR TREATMENT OF NON-SMALL CELL LUNG CANCER (NSCLC)” (Janssen Biotech, Inc., priority 2023, published 2026).
# Test: MARIPOSA Phase 3, adverse events
# Format: in vivo, human
# Description: • 1. […] Incidence and Severity of Adverse Events (AEs) [Time Frame: Up to approximately 60 months]. Incidence and severity of treatment emergent adverse events (TEAEs) will be reported. Any adverse event occurring at or after the initial administration of study treatment through the day of last dose plus 30 days, or until the start of subsequent anticancer therapy (if earlier), is considered to be treatment emergent. • 8. Number of Participants with Clinical Laboratory Abnormalities [Time Frame: Up to approximately 60 months]. Number of participants with clinical laboratory abnormalities (serum chemistry, hematology, blood coagulation, and urine samples) will be reported. • 9. Number of Participants with Vital Signs Abnormalities [Time Frame: Up to approximately 60 months]. Number of participants with vital signs abnormalities (temperature, heart rate, respiratory rate, oxygen saturation, blood pressure) will be reported. • 10. Number of Participants with Physical Examination Abnormalities [Time Frame: Up to approximately 60 months]. Number of participants with physical examination abnormalities will be reported. • 11. […] The NSCLC-SAQ contains 7 items that assess cough, pain, dyspnea, fatigue, and poor appetite over a 7-day recall period. Each multi-item scale and individual item will be summarized using count and percent by visit. • 15. […] EORTC-QLQ-C30 is a core 30-item questionnaire for evaluating the health-related quality of life (HRQOL) of participants participating in cancer clinical studies. • 16.
# [1] = TEAE leading to dose reductions of any study agent
# [2] = TEAE leading to interruptions of any study agent
# [3] = adverse events, listed as osimertinib
# [4] = pneumonitis and interstitial lung disease
smiles,measurement,setting,value
C=CC(=O)Nc1cc(Nc2nccc(-c3cn(C)c4ccccc34)n2)c(OC)cc1N(C)CCN(C)C [Osimertinib],Skin lesion,[1],0 no. (%)
same,Stomatitis,[1],0 no. (%)
same,Asthenia,[2],1 (0.2) no. (%)
same,COVID-19,[2],36 (8) no. (%)
same,Deep vein thrombosis,[2],2 (0.5) no. (%)
same,Dermatitis acneiform,[2],1 (0.2) no. (%)
same,Diarrhea,[2],6 (1) no. (%)
same,Hypoalbuminemia,[2],0 no. (%)
same,Increased alanine aminotransferase,[2],12 (3) no. (%)
same,Increased aspartate aminotransferase,[2],11 (3) no. (%)
same,Increased γ-glutamyltransferase,[2],5 (1) no. (%)
same,Paronychia,[2],4 (1) no. (%)
same,Peripheral edema,[2],0 no. (%)
same,Pneumonia,[2],18 (4) no. (%)
same,Pulmonary embolism,[2],9 (2) no. (%)
same,Rash,[2],4 (1) no. (%)
same,Stomatitis,[2],4 (1) no. (%)
same,Any venous thromboembolism event leading to death,VTE,2 (0.5) no. (%)
same,Any venous thromboembolism event leading to discontinuation of any agent,VTE,2 (0.5) no. (%)
same,"Any venous thromboembolism event, Grade 1",VTE,0 no. (%)
same,"Any venous thromboembolism event, Grade 2",VTE,24 (6) no. (%)
same,"Any venous thromboembolism event, Grade 3",VTE,12 (3) no. (%)
same,"Any venous thromboembolism event, Grade 4",VTE,1 (0.2) no. (%)
same,"Any venous thromboembolism event, Grade 5",VTE,2 (0.5) no. (%)
same,Axillary vein thrombosis,VTE event,0 no. (%)
same,Deep vein thrombosis,VTE event,11 (3) no. (%)
same,Embolism,VTE event,3 (1) no. (%)
same,Embolism venous,VTE event,1 (0.2) no. (%)
same,Jugular vein thrombosis,VTE event,0 no. (%)
same,Pelvic venous thrombosis,VTE event,1 (0.2) no. (%)
same,Portal vein thrombosis,VTE event,0 no. (%)
same,Post thrombotic syndrome,VTE event,0 no. (%)
same,Pulmonary embolism,VTE event,20 (5) no. (%)
same,Pulmonary infarction,VTE event,0 no. (%)
same,Pulmonary thrombosis,VTE event,1 (0.2) no. (%)
same,Sigmoid sinus thrombosis,VTE event,0 no. (%)
same,Superficial vein thrombosis,VTE event,0 no. (%)
same,Superior sagittal sinus thrombosis,VTE event,0 no. (%)
same,Superior vena cava syndrome,VTE event,1 (0.2) no. (%)
same,Thrombophlebitis,VTE event,4 (1) no. (%)
same,Thrombosis,VTE event,1 (0.2) no. (%)
same,Vena cava thrombosis,VTE event,0 no. (%)
same,Venous thrombosis,VTE event,1 (0.2) no. (%)
same,Venous thrombosis limb,VTE event,1 (0.2) no. (%)
same,Any event leading to discontinuations of any study agent,adverse events,58 (14) no. (%)
same,Any event leading to interruptions of any study agent,adverse events,165 (39) no. (%)
same,Any event leading to reductions of any study agent,adverse events,23 (5) no. (%)
same,Any event resulting in death,adverse events,31 (7) no. (%)
same,Any serious event,adverse events,143 (33) no. (%)
same,Grade ≥3,adverse events,183 (43) no. (%)
same,Any event,"adverse events, safety population",425 (99) no. (%)
same,Any event leading to discontinuations of any study agent,[3],58 (14%) no. (%)
same,Any event leading to interruptions of any study agent,[3],165 (39%) no. (%)
same,Any event leading to reductions of any study agent,[3],23 (5%) no. (%)
same,Any event resulting in death,[3],31 (7%) no. (%)
same,Interstitial lung disease/pneumonitis,"any grade, both groups",3%
same,"Interstitial lung disease/pneumonitis, grade 3 or higher",both groups,1%
same,Adverse events of grade 3 or higher,in vivo,43%
same,Discontinuations of all agents due to treatment-related adverse events,in vivo,3%
same,Receiving anticoagulation at time of first VTE,in vivo,0%
same,Serious adverse events,in vivo,33%
same,Venous thromboembolic (VTE) events,in vivo,9%
same,VTE events in the first 4 months of treatment,of VTE events,33%
same,First bleeding event while on anticoagulants,on anticoagulants,14 (3) no. (%)
same,Recurrent venous thromboembolism event while on anticoagulants,on anticoagulants,0 no. (%)
same,Anticoagulation concomitant use,on study,81 (19) no. (%)
same,"Interstitial lung disease, Duration of event, median no. of days (range)",[4],20 (1-189) days
same,"Interstitial lung disease, No. of days to first onset, median (range)",[4],115 (9-512) days
same,"Interstitial lung disease, No. of patients (%)",[4],13 (3) no. (%)
same,Alanine aminotransferase increased,serious TEAE,6 (1) no. (%)
same,COVID-19,serious TEAE,10 (2) no. (%)
same,Cardiac failure,serious TEAE,5 (1) no. (%)
same,Deep vein thrombosis,serious TEAE,2 (0.5) no. (%)
same,Dyspnea,serious TEAE,11 (3) no. (%)
same,Hypoalbuminemia,serious TEAE,0 no. (%)
same,Hyponatremia,serious TEAE,4 (1) no. (%)
same,Infusion related reaction,serious TEAE,0 no. (%)
same,Interstitial lung disease,serious TEAE,5 (1) no. (%)
same,Pericardial effusion,serious TEAE,5 (1) no. (%)
same,Pleural effusion,serious TEAE,17 (4) no. (%)
same,Pneumonia,serious TEAE,21 (5) no. (%)
same,Pneumonitis,serious TEAE,8 (2) no. (%)
same,Pulmonary embolism,serious TEAE,10 (2) no. (%)
same,Rash,serious TEAE,0 no. (%)
same,Respiratory failure,serious TEAE,2 (0.5) no. (%)
same,Any event,treatment-related AE,378 (88) no. (%)
same,Any event resulting in death,treatment-related AE,2 (0.5) no. (%)
same,Any serious event,treatment-related AE,24 (6) no. (%)
same,Grade ≥3,treatment-related AE,59 (14) no. (%)
same,Decreased appetite,"treatment-related AE, All",40 (9) no. (%)
same,Dermatitis acneiform,"treatment-related AE, All",54 (13) no. (%)
same,Diarrhea,"treatment-related AE, All",149 (35) no. (%)
same,Dry skin,"treatment-related AE, All",54 (13) no. (%)
same,Hypoalbuminemia,"treatment-related AE, All",11 (3) no. (%)
same,Increased alanine aminotransferase,"treatment-related AE, All",38 (9) no. (%)
same,Increased aspartate aminotransferase,"treatment-related AE, All",34 (8) no. (%)
same,Infusion-related reaction,"treatment-related AE, All",0 no. (%)
same,Nausea,"treatment-related AE, All",32 (7) no. (%)
same,Paronychia,"treatment-related AE, All",115 (27) no. (%)
same,Peripheral edema,"treatment-related AE, All",10 (2) no. (%)
same,Pruritus,"treatment-related AE, All",63 (15) no. (%)
same,Rash,"treatment-related AE, All",121 (28) no. (%)
same,Stomatitis,"treatment-related AE, All",77 (18) no. (%)
same,Thrombocytopenia,"treatment-related AE, All",75 (18) no. (%)
same,Decreased appetite,"treatment-related AE, Grade ≥3",1 (0.2) no. (%)
same,Dermatitis acneiform,"treatment-related AE, Grade ≥3",0 no. (%)
same,Diarrhea,"treatment-related AE, Grade ≥3",2 (0.5) no. (%)
same,Dry skin,"treatment-related AE, Grade ≥3",1 (0.2) no. (%)
same,Hypoalbuminemia,"treatment-related AE, Grade ≥3",0 no. (%)
same,Increased alanine aminotransferase,"treatment-related AE, Grade ≥3",4 (1) no. (%)
same,Increased aspartate aminotransferase,"treatment-related AE, Grade ≥3",1 (0.2) no. (%)
same,Infusion-related reaction,"treatment-related AE, Grade ≥3",0 no. (%)
same,Nausea,"treatment-related AE, Grade ≥3",1 (0.2) no. (%)
same,Paronychia,"treatment-related AE, Grade ≥3",2 (0.5) no. (%)
same,Peripheral edema,"treatment-related AE, Grade ≥3",0 no. (%)
same,Pruritus,"treatment-related AE, Grade ≥3",1 (0.2) no. (%)
same,Rash,"treatment-related AE, Grade ≥3",3 (1) no. (%)
same,Stomatitis,"treatment-related AE, Grade ≥3",1 (0.2) no. (%)
same,Thrombocytopenia,"treatment-related AE, Grade ≥3",3 (1) no. (%)
